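Interpolation was linear, between the two tested concentrations surrounding the appropriate level; five concentrations were tested over 48 hours in 96-well plates. Definition used: TGI = concentration required for complete inhibition of growth.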
Experiments:
Experiment in all cases: NCI-60 cell line screen, 48 h
PC-3 prostate = system: PC-3 prostate
MDA-MB-435 = system: MDA-MB-435
K-562 leukemia = system: K-562 leukemia
A498 renal = system: A498 renal
UACC-62 melanoma = system: UACC-62 melanoma
KM12 colon = system: KM12 colon
OVCAR-3 ovarian = system: OVCAR-3 ovarian
OVCAR-4 ovarian = system: OVCAR-4 ovarian
SK-MEL-2 melanoma = system: SK-MEL-2 melanoma
TK-10 renal = system: TK-10 renal
CCRF-CEM leukemia = system: CCRF-CEM leukemia
M14 melanoma = system: M14 melanoma
786-0 renal = system: 786-0 renal
LOX IMVI melanoma = system: LOX IMVI melanoma
OVCAR-5 ovarian = system: OVCAR-5 ovarian
SK-OV-3 ovarian = system: SK-OV-3 ovarian
SF-295 CNS = system: SF-295 CNS

SMILES | TGI (PC-3 prostate) | TGI (MDA-MB-435) | TGI (K-562 leukemia) | TGI (A498 renal) | TGI (UACC-62 melanoma) | TGI (KM12 colon) | TGI (OVCAR-3 ovarian) | TGI (OVCAR-4 ovarian) | TGI (SK-MEL-2 melanoma) | TGI (TK-10 renal) | TGI (CCRF-CEM leukemia) | TGI (M14 melanoma) | TGI (786-0 renal) | TGI (LOX IMVI melanoma) | TGI (OVCAR-5 ovarian) | TGI (SK-OV-3 ovarian) | TGI (SF-295 CNS)
CCc1cccc(C(C)C)c1NC(=O)C(=O)Nn1c(=S)[nH]c2ccccc2c1=O | > 100 µM | > 100 µM | > 100 µM | > 100 µM | > 100 µM | > 100 µM | > 100 µM | > 100 µM | > 100 µM | > 100 µM | > 100 µM | > 100 µM | > 100 µM | > 100 µM | > 100 µM | > 100 µM | > 100 µM
Cc1cc2c(cc1Cl)SC(NNC(=O)c1ccccc1)=NS2(=O)=O | > 10 µM | > 10 µM | > 10 µM | > 10 µM | > 10 µM | > 10 µM | > 10 µM | > 10 µM | > 10 µM | > 10 µM | > 10 µM | > 10 µM | > 10 µM | > 10 µM | > 10 µM | > 10 µM | > 10 µM
CC(=O)Nn1c(Cc2ccc(Cl)cc2)nn(C)c1=O | > 100 µM | > 100 µM | > 100 µM | > 100 µM | > 100 µM | > 100 µM | > 100 µM | > 100 µM | > 100 µM | > 100 µM | > 100 µM | > 100 µM | > 100 µM | > 100 µM | > 100 µM | > 100 µM | > 100 µM
CC(/C=C/c1ccccc1)=N\NC(=S)N/N=C(C)/C=C/c1ccccc1 | > 100 µM | > 100 µM | > 100 µM | 7.51 µM | > 100 µM | – | 66.5 µM | 28.5 µM | 50.3 µM | 46 µM | > 100 µM | > 100 µM | 29.5 µM | 28.8 µM | > 100 µM | > 100 µM | 61.6 µM
CNc1ccc(C)cc1S(=O)(=O)c1ccccc1[N+](=O)[O-] | > 100 µM | > 100 µM | > 100 µM | > 100 µM | > 100 µM | > 100 µM | > 100 µM | 92 µM | > 100 µM | > 100 µM | > 100 µM | > 100 µM | > 100 µM | > 100 µM | > 100 µM | > 100 µM | > 100 µM
O=C(O)CCC1C(=O)C2CCN1CC2 (stereo unspecified) | > 100 µM | > 100 µM | > 100 µM | > 100 µM | > 100 µM | > 100 µM | > 100 µM | > 100 µM | > 100 µM | > 100 µM | > 100 µM | > 100 µM | > 100 µM | > 100 µM | > 100 µM | > 100 µM | > 100 µM
C=C(CN(C)C)C(=O)c1ccccc1 | 30.6 µM | 27.3 µM | 14.3 µM | 41.7 µM | 30.1 µM | 42.2 µM | 9.9 µM | 39.3 µM | 32.9 µM | 13.4 µM | 3.17 µM | 7.54 µM | 13.5 µM | 15.4 µM | 30.4 µM | 41 µM | 47.4 µM
CCc1n[nH]c(=O)n1-n1c(C)ccc1C | > 100 µM | > 100 µM | > 100 µM | > 100 µM | > 100 µM | > 100 µM | > 100 µM | > 100 µM | > 100 µM | > 100 µM | > 100 µM | > 100 µM | > 100 µM | > 100 µM | > 100 µM | > 100 µM | > 100 µM
Cc1cccc2c(N)c3cccc(C(=O)NCCNCCN)c3nc12 | > 100 µM | > 78.8 µM | > 100 µM | > 55.9 µM | 39.8 µM | > 100 µM | > 93.7 µM | 19.1 µM | 28.5 µM | 95.4 µM | > 100 µM | > 100 µM | 16.9 µM | 39.9 µM | > 100 µM | > 100 µM | > 100 µM
CC(=O)O[C@H]1[C@@H](OC2CCCC2(c2ccccc2)c2ccccc2)O[N+]([O-])=C[C@@H]1c1ccccc1 (stereo partly specified) | 21.2 µM | 11.3 µM | > 32.9 µM | 23.4 µM | 15.7 µM | 23.4 µM | 21 µM | 21.4 µM | 24.1 µM | 23.2 µM | 14 µM | 18.5 µM | 3.26 µM | 5.04 µM | 35.6 µM | 29 µM | 21.7 µM
COC1=CC(=O)C2=C(C1=O)[C@H]1CC[C@]3(C)C(=O)CC[C@H]3[C@@H]1CC2 | 85.2 µM | 45.6 µM | > 100 µM | > 100 µM | > 100 µM | > 100 µM | 52.3 µM | 29.5 µM | 36.3 µM | > 100 µM | 26.9 µM | > 100 µM | 53.2 µM | 35.4 µM | 44.6 µM | > 100 µM | > 100 µM
O=C(Cn1c2ccc(Br)cc2c2nc3ccccc3nc21)NNC(=O)NC1CCCCC1 | > 100 µM | > 100 µM | > 100 µM | > 100 µM | > 100 µM | > 100 µM | > 100 µM | 42.9 µM | > 100 µM | > 100 µM | 76.1 µM | > 100 µM | > 100 µM | > 100 µM | > 100 µM | > 100 µM | > 100 µM
O=C1NC(=Nc2ccccc2Cl)N/C1=C\c1c(Cl)cccc1Cl | 76.8 µM | > 100 µM | > 100 µM | > 100 µM | > 100 µM | > 100 µM | > 100 µM | 49.3 µM | > 100 µM | 71.7 µM | > 100 µM | > 100 µM | > 100 µM | > 100 µM | 83.7 µM | > 100 µM | > 100 µM
CC(=O)OC1CCn2c1nc1c2C(=O)C=C(N2CC2)C1=O (stereo unspecified) | 2.52 µM | 1.71 µM | 4.54 µM | 0.613 µM | 0.214 µM | – | 0.546 µM | 0.231 µM | 0.439 µM | 0.86 µM | 1.17 µM | 0.186 µM | 0.557 µM | 0.275 µM | 2.61 µM | 6.15 µM | 5.61 µM

— PubChem BioAssay (NCI)
